The record followed here is ChEMBL document CHEMBL2157881, “Labeled Ligand Displacement: Extending NMR-Based Screening of Protein Targets” (ACS Med Chem Lett, 2010).

The nature of assay [1]: Binding affinity to HSP90 ATPase domain by TR-FRET assay. A general note: TR-FRET usually uses a lanthanide donor and a delayed reading to cut background.
A short description of assay [2]: Binding affinity HSP90 ATPase domain assessed as broadening of compound signals using [13C]labeled compound at 200 uM by NMR spectroscopy.
The species named for a further assay is Bos taurus. Put plainly: Binding affinity bovine carbonic anhydrase assessed as broadening of compound signals using [13C]labeled compound at 20 uM by NMR spectroscopy.
Assay [3] is described as follows: Binding affinity bovine carbonic anhydrase by surface plasma resonance method. Set-up: species or system Bos taurus.
Assay [4] is described as follows: Binding affinity bovine carbonic anhydrase. Set-up: species or system Bos taurus.
Assay [5] in a line: Binding affinity HSP90 ATPase domain at 100 uM by STD competition spectroscopy.
The nature of assay [6]: Binding affinity to HSP90 ATPase domain assessed as broadening of compound signals using [13C]labeled compound at 20 uM by NMR spectroscopy.

Each structure is given as a SMILES string. Activity calls are given as the source filed them. The rule behind the calls is not given here.

In the case of `Cc1cc(-c2cccc3ccccc23)nc(N)n1`, the Ki in assay [1] amounted to 5 µM. The outcome in assay [2] was Active. In assay [1], `Cc1cc(-c2ccccc2)nc(N)n1` returned a Ki of 14 µM.

On to `NS(=O)(=O)c1ccc(F)cc1`, for which the outcome in the assay filed under Bos taurus was Active. This compound came in with a Kd in assay [3] of 1 µM. As to `CCN1CCCC1CNC(=O)c1cc(S(N)(=O)=O)ccc1OC` (centres undefined) [SULPIRIDE], the Ki in assay [4] is 48 µM. In assay [1], `COc1ccc(Cl)cc1-c1cc(C)nc(N)n1` had a Ki of 11 µM. In addition, the result in assay [5] was Active. In assay [6], the Activity result was “Dose-dependent effect”.

For orientation: Ki means a dissociation constant, usually derived from enzyme kinetics or from competition with a known ligand. A high value points to a looser hold on the target. What is called Kd is the constant that tells how readily two partners part at equilibrium. Lower therefore signals a tighter complex.
